# Reference: patent US11458138B2 (Novartis AG, priority 2017, dated 2022)
# Experiments:
# [1] = system: corneal endothelium cell population; experiment: FACS analysis of expanded corneal endothelium cell population (CD73, CD44, CD166, CD105); type: cell-based, human; details: vs CECs cultured without LATS inhibitor (high levels)
# Description: FIG. 21: FACS analysis of the corneal endothlelium cell population expanded in the presence of the LATS inhibitor, compound ex. 47, and CECs cultured in the absence of a LATS inhibitor. The cell population expanded in the presence of the LATS inhibitor expresses low levels of CD73 (FIG. 21a, grey line), CD44 (FIG. 21b, grey line), CD166 (FIG. 21c, grey line) and CD105 (FIG. 21d, grey line); while the cell population cultured without the LATS inhibitor expresses high levels of CD44, CD73, CD105 and CD166 (black lines).
# (4) The cells express relatively low levels of CD73. The relative expression levels are lower than cells which have undergone endothelial to mesenchymal transition. The expression of CD73 may be estimated by standard techniques known in the art, such as for example FACS analysis or immunohistochemistry.
# limbal stem cells (LSCs) = experiment: Differentiation of expanded LSCs into corneal epithelium cells (p63alpha / keratin 12); type: cell-based, human; details: transferred to conditions that enable differentiation
# Description: Shown are views where the transition from the p63alpha-positive cell identity to the keratin-12 identity are occurring.
# These characteristics can be observed by immunohistochemistry or FACS.
# [2] = system: Ki67-positive hepatocytes; experiment: In vivo treatment of mice: immunohistochemistry (IHC) for Ki67 in liver; details: mouse liver, single oral dose 30 mg/kg, 24 h post-dose, relative to vehicle, mean+/-SEM
# Method: (§1) All animal studies were carried out in accordance with federal, state, local and institutional guidelines governing the use of laboratory animals in research. Male C57BL/6J mice (age 8-10 weeks) were purchased from Jackson Labs (Bar Harbor, Me.). Example 46 was formulated for oral dosing at 3 mg/ml, and Example 261 at 1 mg/ml, in a suspension of methylcellulose:Tween80:Water (0.5:0.5:99). Single oral dose of either compound was at 10 mL/kg body weight. Blood and liver tissue were collected under deep anesthesia (isoflurane) at either 2 h post-dose (for mRNA analysis) or 24 h post-dose (for immunohistochemistry).
# Liver tissue was fixed in 10% neutral buffered formalin for 24-48 h. Processing and embedding in paraffin was by standard procedures. Sections were cut at 5 microns thickness and stained using a Ventana automated system. Primary antibody for mouse Ki67 was a rabbit IgG (Bethyl Labs). Ki67-positive hepatocytes were quantified by image analysis using the HALO platform. At least 3 sections per animal were analyzed, from the middle of the medial lobe.
# [3] = system: Phospho-YAP (SER127) in liver tissue; experiment: In vivo treatment of mice: Phospho-YAP (pYAP) HTRF in liver tissue; details: mouse liver, single oral dose 30 mg/kg
# Method: as §1
# Frozen liver tissue was transferred into a Lysing Matrix tube (MP, cat #6913-500) with a 1:50 solution of Protease inhibitor (Sigma-Aldrich, cat #P8340) in Phosphosafe extraction buffer (Novagen, cat #71296-3) and homogenized using the FastPrep-24 (MP biomedicals). […] The protein concentration was measured using the BCA Protein Assay Kit (Pierce cat. 23227) following the manufacturer's protocol. […] The same input quantity was used for each sample, based on total protein content (30-60 ug per sample per well). […] Plates were read on an EnVision (PerkinElmer) with emission wavelengths of 665 nm & 620 nm. The HTRF signal ratio was calculated as Signal(665 nm)/Signal(620 nm))×10000 as specified in the manufacturer's protocol. […]
# LATS1 = LATS1 (Homo sapiens (Human), UniProt O95835); experiment: LATS1 biochemical assay (Table 1A, Compound Examples 1-290; method in the earlier part)
# Sequence of LATS1 (O95835 whole entry, looked up): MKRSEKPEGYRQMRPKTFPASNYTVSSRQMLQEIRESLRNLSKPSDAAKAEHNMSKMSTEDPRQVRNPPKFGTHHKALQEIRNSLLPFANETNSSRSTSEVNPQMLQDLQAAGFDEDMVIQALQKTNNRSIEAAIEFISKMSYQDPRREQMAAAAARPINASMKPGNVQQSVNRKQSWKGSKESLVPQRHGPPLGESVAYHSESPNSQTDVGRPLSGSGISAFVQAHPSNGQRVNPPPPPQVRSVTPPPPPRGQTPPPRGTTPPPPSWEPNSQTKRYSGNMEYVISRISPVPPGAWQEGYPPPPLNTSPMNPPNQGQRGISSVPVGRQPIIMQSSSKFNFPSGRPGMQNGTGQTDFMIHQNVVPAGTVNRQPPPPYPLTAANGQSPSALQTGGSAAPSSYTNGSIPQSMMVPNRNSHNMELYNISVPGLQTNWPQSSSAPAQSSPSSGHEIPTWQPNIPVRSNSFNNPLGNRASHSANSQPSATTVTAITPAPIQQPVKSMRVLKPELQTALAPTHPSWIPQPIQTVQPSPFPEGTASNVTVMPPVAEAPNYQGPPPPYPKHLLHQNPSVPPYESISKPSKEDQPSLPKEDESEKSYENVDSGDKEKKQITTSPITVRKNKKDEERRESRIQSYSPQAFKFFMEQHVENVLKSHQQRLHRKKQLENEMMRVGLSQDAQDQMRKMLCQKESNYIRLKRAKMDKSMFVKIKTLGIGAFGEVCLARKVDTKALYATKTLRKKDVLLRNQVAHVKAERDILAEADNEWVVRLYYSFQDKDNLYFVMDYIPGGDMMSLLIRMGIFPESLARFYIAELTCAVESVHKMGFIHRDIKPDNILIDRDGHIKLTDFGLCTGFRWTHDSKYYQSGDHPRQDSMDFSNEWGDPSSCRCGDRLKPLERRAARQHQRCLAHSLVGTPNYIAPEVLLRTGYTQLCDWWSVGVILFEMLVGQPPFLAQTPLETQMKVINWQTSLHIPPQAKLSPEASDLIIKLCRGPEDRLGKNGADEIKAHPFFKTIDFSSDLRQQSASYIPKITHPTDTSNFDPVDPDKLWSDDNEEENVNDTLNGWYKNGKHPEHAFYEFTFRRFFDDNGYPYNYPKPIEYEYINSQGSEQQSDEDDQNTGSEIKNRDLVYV
# Sequence of LATS1 (Q7L9L4 whole entry partner, looked up): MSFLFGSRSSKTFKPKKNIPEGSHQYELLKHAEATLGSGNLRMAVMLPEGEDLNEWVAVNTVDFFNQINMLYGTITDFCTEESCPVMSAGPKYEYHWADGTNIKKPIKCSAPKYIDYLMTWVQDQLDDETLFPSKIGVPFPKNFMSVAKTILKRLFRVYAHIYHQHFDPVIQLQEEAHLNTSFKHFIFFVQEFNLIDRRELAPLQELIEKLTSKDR
# Cyr61 mRNA in liver = experiment: In vivo treatment of mice: quantitative RT-PCR, Cyr61; details: mouse liver, single oral dose 30 mg/kg, 2 h post-dose, relative to vehicle, mean+/-SEM
# Method: as §1
# (§2) Total liver RNA was isolated from tissue after storage in RNAlater reagent (Qiagen), using a TRIzol method according to the manufacturer's instructions (Life Technologies). Relative mRNA abundance was measured by quantitative RT-PCR using TaqMan gene expression assays and reagents according to standard protocols (Applied Biosystems). Mouse probes for YAP target genes were CTGF (Mm01192933_g1) and Cyr61 (Mm00487498_m1). […] Relative changes in mRNA were calculated by the ΔΔCt method. Changes in gene expression with compound treatment are expressed as fold-change relative to the vehicle group.
# CTGF mRNA in liver = experiment: In vivo treatment of mice: quantitative RT-PCR, CTGF; details: mouse liver, single oral dose 30 mg/kg, 2 h post-dose, relative to vehicle, mean+/-SEM
# Method: as §1, §2
# [4] = system: YAP nuclear translocation in HaCaT cells; experiment: YAP Translocation Assay (HaCaT Cells); type: cell-based, human; details: Homo sapiens, 24 hours
# Outline: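 HaCaT cells (20,000/well) in DMEM + 10% FBS were plated overnight at 37° C, then exposed to compound for 24 h at 37° C. Cells were fixed with PFA, permeabilized with 0.1% Triton/1.5% BSA and imaged by high-content imaging.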
IC50 (LATS1) [µM],Structure (SMILES),"expression of CD73, CD44, CD166 and CD105 by FACS [1]",differentiation of expanded LSCs into corneal epithelium cells (keratin 12) (limbal stem cells (LSCs)),Ki67 IHC (fold-change) [2],pYAP (% of control) [3],Cyr61 mRNA (fold-change) (Cyr61 mRNA in liver),CTGF mRNA (fold-change) (CTGF mRNA in liver),EC50 [4] [µM]
–,"CC(N(C)c1nc(-c2ccncc2)nc2cnccc12)C(F)(F)F (racemic) [Example 47, N-methyl-2-(pyridin-4-yl)-N-(1,1,1-trifluoropropan-2-yl)pyrido[3,4-d]pyrimidin-4-amine]",low levels,can differentiate into corneal epithelium cells,–,–,–,–,–
> 2.5,"c1cc(-c2nc(NCCCc3nnn[nH]3)c3ccncc3n2)ccn1 [Example 46, 2-(pyridin-4-yl)-N-[3-(1H-1,2,3,4-tetrazol-5-yl)propyl]pyrido[3,4-d]pyrimidin-4-amine]",–,–,3.3 (+/−0.2) fold-change,64 % of control,3.5 (+/−0.5) fold-change,2.1 (+/−0.4) fold-change,> 20
